The text below walks through data of article PMC9822553 (iScience, 2023).

One series concerns SARS-CoV-2 Omicron. In kind it is cell-based.
Another series deals with SARS-CoV-2 Delta. In kind it is cell-based.

Regarding `Cc1cc(C)nc(NC(=S)N2CCN(Cc3ccc(C(F)(F)F)cc3)CC2)c1` [NCT-503], in the series with SARS-CoV-2 Omicron, the “inhibition of Omicron-induced caspase 3/7 activation” value is “inhibited”. The “effect on SARS-CoV-2 replication in ALI HBE cultures” value in the series on SARS-CoV-2 Delta is on record as “inhibited SARS-CoV-2 replication”.

Consider `CCN(CCO)CCCC(C)Nc1ccnc2cc(Cl)ccc12` (stereo not shown) [hydroxychloroquine], for which the drug-induced phospholipidosis result with A549-ACE2 cells and in the series with Vero cells was “considerable phospholipidosis” throughout.
